Entries after “also recorded” stand apart in the source; their conditions may differ.
Legend:
[1] = test system: human ZR-75-1 breast tumor xenografts; test: Growth of human ZR-75-1 breast tumor xenografts in OVX nude mice supplemented with estrone; conditions: alone or with EM-800 15 μg, OVX+E1 0.5 μg nude mice, 9.5 months
[2] = test system: female rat; test: Bone mineral density (DEXA) after 9-month treatment; assay type: in vivo; conditions: DHEA 10 mg percutaneously, EM-800 75 μg orally, once daily, alone or in combination, 9 months
Protocol: (§1) Female Sprague-Dawley rats [Crl:CD(SD)Br] were obtained at 44-46 days of age from Charles River Canada Inc. (St. Constant, Quebec) and housed 2 per cage in a light (12 h light/day; lights on at 07:15 h)-and temperature (22±2° C.)-controlled environment. Animals received Purina rodent chow and tap water ad libitum. The animal studies were conducted in a Canadian Council on Animal Care (CCAC)-approved facility in agreement with the CCAC Guide for Care and Use of Experimental Animals.
(§2) The animals were randomly divided into groups each containing 20 rats with the exception of 40 animals in the control group. […] Treatment was initiated 3 days before the oral administration of DMBA. EM-800 was synthesized in the Medicinal Chemistry Division of our laboratory while DHEA was purchased from Steraloids Inc., Wilton, N.H.
Rats were anesthetized with an i.p. injection of ketamine hydrochloride and diazepam at doses of 50 and 4 mg/kg B.W., respectively. The whole skeleton and the right femur were scanned using dual energy X-ray absorptiometry (DEXA; QDR 2000-7.10C, Hologic, Waltham, Mass.) equipped with a Regional High Resolution software. The scan field sizes were 28.110×17.805 cm and 5.0×1.902 cm, the resolutions were 0.1511×0.0761 cm and 0.0254×0.0127 cm, while the scan speeds were 0.3608 and 0.0956 mm/sec for total skeleton and femur, respectively. Both bone mineral content (BMC) and bone mineral density (BMD) of total skeleton, lumbar spine, and femur were measured on the scan images of total skeleton and femur.

[3] = aged Sprague-Dawley rats; reduced from 600 g, food intake unaffected; cited from earlier work
[4] = test system: rat; test: Urine and serum biochemical parameters of bone metabolism; assay type: in vivo; conditions: DHEA 10 mg percutaneously, EM-800 75 μg orally, once daily, alone or in combination, 9 months
Source text: as §2
(§3) Twenty-four-hour urinary samples were collected at the end of the experiment from the first 9 rats of each group following transfer in metabolic cages (Allentown Caging Equipment Co., Allentown, N.J.). Two urinary samples were collected and analyzed on different days for each animal in order to minimize the influence of daily variation. Therefore, each value shown represents the mean of the two measurements performed on two different days. 0.5 ml of toluene was added into the urine collecting tubes to prevent urine evaporation and bacterial growth and the urinary volume was recorded. Trunk blood was collected at sacrifice and was allowed to clot at 4° C. overnight before centrifugation at 3000 rpm for 30 min.
(§4) Fresh samples were used for the assay of urinary creatinine, calcium, and phosphorus as well as serum total alkaline phosphatase (tALP) activity, cholesterol and triglycerides. These biochemical parameters were measured automatically with a Monarch 2000 Chemistry System (Instrumentation Laboratory Co. Lexington, Mass.) under Good Laboratory Practice conditions. Urinary hydroxyproline was measured as described (Podenphant et al., Clinica Chimica Acta 142: 145-148, 1984).

[5] = test system: DMBA-induced mammary carcinoma; test: Development of DMBA-induced mammary carcinoma in the rat; assay type: in vivo; conditions: 279 days after DMBA
Protocol: as §1
Mammary carcinomas were induced by a single intragastric administration of 20 mg of DMBA (Sigma Chemical Co., St. Louis, Mo.) in 1 ml of corn oil at 50-52 days of age. Two months later, tumor measurement was performed biweekly. The two largest perpendicular diameters of each tumor were recorded with calipers to estimate tumor size as described (Asselin et al., Endocrinology 101: 666-671, 1977). Tumor site, size and number were recorded.
as §2
Many of the control animals and some of EM-800- or DHEA-treated animals were sacrificed by cervical dislocation under isoflurane-induced anesthesia 6 months after DMBA administration because of the too large size of tumors. The values of tumor size and number of these rats at sacrifice, together with those measured at later time intervals from the surviving animals, were used for the later analysis of the incidence of tumors, average tumor number per tumor-bearing rat and average tumor size per tumor-bearing animal. […] Rats were sacrificed 279 days after DMBA administration.
Statistical significance was measured according to the multiple range test of Duncan-Kramer (Biometrics 12: 307-310, 1956). Analysis of the incidence of development of mammary tumors was performed using the Fisher's exact test (Conover, Practical nonparametric statistics, 2nd Edition 153-170, 1980). The data are presented as means±S.E.M.

[6] = test system: ovariectomized rats; test: Bone histomorphometry of tibia after 12-month treatment of ovariectomized rats; assay type: in vivo, rat; conditions: 12 months, histology
Protocol: Intact animals are added as additional controls. Data are presented as mean±SEM **p<0.01 versus OVX Control.
Modified trichrome Masson-Goldner, magn. ×80. T: Trabeculae, GP: Growth Plate.

[7] = Example 5 table: serum, urinary and GnRH mRNA parameters in OVX groups; assay type: in vivo; conditions: doses not given
[8] = test system: ovariectomized (OVX) nude mice supplemented with estrone; test: Uterine, vaginal and body weight in OVX nude mice bearing ZR-75-1 xenografts; conditions: OVX+E1 nude mice
Protocol: A posteriori pairwise comparisons were performed using Fisher's test for least significant difference. Main effects and the interaction of treatments on body weight and organ weight were analyzed using a standard two-way ANOVA with interactions. All ANOVAs were performed using SAS program (SAS Institute, Cary, N.C., USA). Significance of differences were declared using a 2-tailed test with an overall level of 5%.

[9] = test system: rat; test: Serum triglyceride and cholesterol levels after 9-month treatment; assay type: in vivo; conditions: DHEA 10 mg percutaneously, EM-800 75 μg orally, once daily, alone or in combination, 9 months
Source text: as §2, §3, §4

With `C[C@]12CC[C@H](O)CC1=CC[C@@H]1[C@@H]2CC[C@]2(C)C(=O)CC[C@@H]12` [DHEA, dehydroepiandrosterone] the “Complete response, (%)” value ([1]; DHEA 0.3 mg percutaneously) was 28.6%, the “Complete response, number” value ([1]; DHEA 0.3 mg percutaneously) was 4 and the “Partial response, (%)” value ([1]; DHEA 0.3 mg percutaneously) was 0 (0) %. For the same molecule, the “Partial response, number” value ([1]; DHEA 0.3 mg percutaneously) was 0 (0), the “Progression, (%)” value ([1]; DHEA 0.3 mg percutaneously) was 50.0% and the “Progression, number” value ([1]; DHEA 0.3 mg percutaneously) was 7. For the same molecule, the “Stable response, (%)” value ([1]; DHEA 0.3 mg percutaneously) was 21.4%, the “Stable response, number” value ([1]; DHEA 0.3 mg percutaneously) was 3 and the “Complete response, (%)” value ([1]; DHEA 1.0 mg percutaneously) was 26.7%. The “Complete response, number” value ([1]; DHEA 1.0 mg percutaneously) was 4, the “Partial response, (%)” value ([1]; DHEA 1.0 mg percutaneously) was 0 (0) % and the “Partial response, number” value ([1]; DHEA 1.0 mg percutaneously) was 0 (0). The “Progression, (%)” value ([1]; DHEA 1.0 mg percutaneously) was 53.3%, the “Progression, number” value ([1]; DHEA 1.0 mg percutaneously) was 8 and the “Stable response, (%)” value ([1]; DHEA 1.0 mg percutaneously) was 20.0%. For the same molecule, the “Stable response, number” value ([1]; DHEA 1.0 mg percutaneously) was 3, the “Complete response, (%)” value ([1]; DHEA 3.0 mg percutaneously) was 20.0% and the “Complete response, number” value ([1]; DHEA 3.0 mg percutaneously) was 3. For the same molecule, the “Partial response, (%)” value ([1]; DHEA 3.0 mg percutaneously) was 0 (0) %, the “Partial response, number” value ([1]; DHEA 3.0 mg percutaneously) was 0 (0) and the “Progression, (%)” value ([1]; DHEA 3.0 mg percutaneously) was 66.7%. The “Progression, number” value ([1]; DHEA 3.0 mg percutaneously) was 10, the “Stable response, (%)” value ([1]; DHEA 3.0 mg percutaneously) was 13.3% and the “Stable response, number” value ([1]; DHEA 3.0 mg percutaneously) was 2. The “BMD FEMUR” value [2] was 0.3408 ± 0.0038 g/cm2, the “BMD LUMBAR SPINE” value [2] was 0.2163 ± 0.0049 g/cm2 and the “BMD TOTAL SKELETON” value [2] was 0.1465 ± 0.0010 g/cm2. For the same molecule, the “increase in BMD of femur versus control” value [2] was 8.2%, the “increase in BMD of lumbar spine versus control” value [2] was 10.6% and the “increase in BMD of total skeleton versus control” value [2] was 6.9%. For the same molecule, the body weight [3] was 550 g, the “decrease of daily urinary calcium excretion versus control” value [4] was “no effect” and the “decrease of daily urinary phosphorus excretion versus control” value [4] was “no effect”. The “decrease of urinary hydroxyproline/creatinine ratio versus control” value [4] was “no effect; also recorded: did not affect; also recorded: did not show any effect”, the “incidence of DMBA-induced mammary carcinoma (animals with palpable tumors)” value ([5]; DHEA 10 mg percutaneously, EM-800 75 μg orally, once daily, control 95%) was 57% and the “average tumor number per tumor-bearing animal” value ([5]; end of experiment, DHEA 10 mg, EM-800 75 μg daily, control 4.7±0.5) was 3.4±0.7 tumors/animal. The “average tumor area per tumor-bearing animal” value ([5]; end of experiment, DHEA 10 mg, EM-800 75 μg daily, control 12.8±1.3) was 10.2±2.1 cm^2, the “effect on trabecular bone volume of proximal tibia metaphysis (FIG. 8)” value [6] was “significant increase in trabecular bone volume” and the “GnRH mRNA levels silver grains per cell” value [7] was 34.5 ± 0.7 silver grains per cell. The Triglycerides [7] was 0.8 ± 0.1 mmol/L, the “Urinary OH-proline/creatinin” value [7] was 7.3 ± 1.0 μmol/mmol and the LH ([7]; LD: Limit of Detection: 0.01 ng/ml) was 0.02 ± 0.01 ng/mL. The “effect of addition of DHEA on estrone-stimulated vaginal weight” value ([8]; DHEA 0.3, 1.0 or 3.0 mg) was “no significant effect”, the “effect on body weight adjusted for tumor weight” value ([8]; 9.5 months) was “No significant effect” and the “decrease of serum cholesterol levels” value [9] was “unaffected”. For the same molecule, the “decrease of serum triglyceride levels” value [9] was 60%.

Source: patent publication US7943603B2, “Medical uses of a selective estrogen receptor modulator in combination with sex steroid precursors” (Endorecherche, Inc., priority 1998, dated 2011)
